Measurements: patent publication US8470526B2, “Method of suppressing human immunodeficiency virus (HIV) replication in a subject by administering a liver X receptor (LXR) agonist” (The George Washington University, priority 2005, dated 2013)

How the values were obtained:
Format in all cases: cell-based
HIV-1 ADA = assay: Infectivity of virions from HIV-1 ADA-infected macrophages on indicator P4-CCR5 cells; settings: TO-901317 500 nM from day 7 after infection for 7 more days; virions adjusted according to p24; versus virions from untreated cells
Protocol: (§1) Human monocyte-derived macrophages were infected with HIV-1 ADA or mock-infected, and 7 days after infection were treated or not with LXR agonist, TO-901317 (500 nM), for 7 more days.
B—Virions were collected from culture supernatants of LXR agonist-treated and untreated (control) cells on day 10 and day 14 (pooled together), adjusted according to p24 content and analyzed for infectivity on indicator P4-CCR5 cells. Experiment was performed in triplicate and results (mean±SD) are presented as percent infectivity of virions produced by control cells; *p<0.001.
(§2) To determine whether impairment of cholesterol efflux has a role in HIV biology, we compared infectivity of HIV virions produced from monocyte-derived macrophages stimulated or not with an LXR agonist, TO-901317. We hypothesized that if impairment of cholesterol efflux is a specific mechanism to increase HIV replication, then agents counteracting this effect should have anti-HIV activity. […] Virions were collected from TO-901317-treated and untreated cells, adjusted according to p24 content, and analyzed for infectivity using indicator P4-CCR5 cells.
Infectivity assay. Virus infectivity was analyzed using P4-CCR5 indicator cells that express B-galactosidase under control of HIV-1 LTR. […] The plate was incubated at 37° C. for 1.5 hours and OD readings were taken at 420 nm.

HIV-1 ADA virions = assay: Analysis of virion-associated cholesterol ([3H]cholesterol incorporation into virions); settings: virions from macrophages treated with 500 nM TO-901317 versus untreated cells; normalized according to p24
Protocol: C—Incorporation of [^3H]cholesterol into virions produced by LXR agonist-treated and untreated (control) cells was measured in triplicate and results (mean±SD) are presented relative to cholesterol in the virions produced by control cells; *p<0.001.
as §2, with “activity. LXR agonists up-regulate expression of ABCA1 at a transcriptional level and stimulate cholesterol efflux from various cell types, including human monocyte-derived macrophages ([47] and FIG. 9A).” for “activity.”
Analysis of virion-associated cholesterol. […] Culture supernatants were collected every 3 days over the period of 2 weeks, pooled, and virions were pelleted by ultracentrifugation, normalized according to p24 value, and the amount of incorporated [^3H]cholesterol counted on a beta-counter.

[1] = tested on: Human monocyte-derived macrophages infected with HIV-1 ADA; assay: Cholesterol efflux to apoA-I from HIV-1 ADA-infected monocyte-derived macrophages; settings: TO-901317 500 nM added at day 7 after infection, kept 7 more days; efflux measured on day 21 after infection
Protocol: as §1
A—Cholesterol efflux to apoA-I was measured on day 21 after infection. *p<0.01 (versus uninfected cells not treated with TO-901317), *p<0.01 (versus HIV-infected cells not treated with TO-901317).
as §2, with “activity. LXR agonists up-regulate expression of ABCA1 at a transcriptional level and stimulate cholesterol efflux from various cell types, including human monocyte-derived macrophages ([47] and FIG. 9A).” for “activity.”
Cholesterol and phospholipid efflux from RAW264.7 cells. […] For cholesterol efflux analysis, aliquots of medium and cells were counted. […] The efflux was calculated as radioactivity in the medium/(radioactivity in the medium+radioactivity remaining in the cells)×100%. […]

Compound: O=S(=O)(c1ccccc1)N(CC(F)(F)F)c1ccc(C(O)(C(F)(F)F)C(F)(F)F)cc1 [TO-901317]
- reduction of infectivity of virions produced from macrophages treated with LXR agonist (HIV-1 ADA): about 80%
- virion-associated cholesterol (HIV-1 ADA virions): significantly diminished
- effect on impairment of cholesterol efflux to apoA-I by HIV-1 infection [1]: prevented the impairment of cholesterol efflux
